Like-named read-outs stand apart in the source and are kept apart here.
How the values were obtained:
[1] = tested on: pERK in NCI-H1838 (NF1-LOF); experiment: pERK modulation in vitro, MSD ELISA, NCI-H1838; conditions: for extent of the pERK increase: NCI-H1838, compared across type II RAF inhibitors; for EC50: read-out: pERK EC50
Protocol: (§1) MSD ELISA experiments were conducted by WuXi AppTec on whole cell lysates and generated using the Phospho/Total ERK1/2 Assay Whole Cell Lysate Kit (MSD, cat. no. K15107D) according to the manufacturer’s protocol.
(§2) In vitro modulation of pERK levels was assessed in NF1-LOF and BRAF V600E tumor cell lines by MSD ELISA.
(§3) pERK levels were assessed 1 hour after treatment with each of the test compounds or control. Preparation of 96-well plates for MSD ELISA was performed according to the manufacturer’s instructions using the Phospho/Total ERK1/2 Assay Whole Cell Lysate Kit (MSD, cat no. K15107D). The plates were read using the MSD reader (MESO QuickPlex SQ120, cat. no. SQ120, RRID: SCR_020304). The A375 BRAF V600E tumor cell line served as a positive control.
(§4) The percent phosphoprotein in a sample was calculated using MSD phospho-/total multiplex phosphoprotein assays, as well as the following formula: anti-total and anti-phospho assay in the same well: % phosphoprotein = [(2 × phospho signal)/(phospho signal + total signal)] × 100. The ratio of pERK to total ERK was normalized to the ratio of the DMSO control group. EC50 pERK values and concentration response curves were generated using GraphPad Prism software analysis (RRID: SCR_002798).

[2] = tested on: NCI-H1838; experiment: CellTiter-Glo cell viability assay, NCI-H1838; conditions: read-out: Proliferation EC50
Protocol: (§5) Next, 2 μL of each concentration was added to 198 μL assay medium (PBS) to create a 10× stock. […] MSD ELISA experiments were conducted by WuXi AppTec on whole cell lysates and generated using the Phospho/Total ERK1/2 Assay Whole Cell Lysate Kit (MSD, cat. no. K15107D) according to the manufacturer’s protocol.
(§6) The in vitro anti-proliferation effect of each of the test compounds was assessed in NF1-LOF and BRAF V600E tumor cell lines cultured as a monolayer using the CellTiter-Glo (CTG) cell viability assay. Cell culture experiments were performed with duplicate wells. Cell concentrations were adjusted for cell density (seeding density of 5,000 for sNF96.2 and MeWo; 6,000 for NCI-H1838; and 2,500 for A375) prior to plating onto a 96-well assay plate and incubated overnight at 37°C with 5% CO2, 95% air, and 100% relative humidity.
(§7) Anti-proliferative activity was assessed after 72 hours of treatment with the test compound or control. […] DMSO was also applied as a control on days 2 and 3. The final DMSO concentration for all test compounds and vehicle control was 0.1%. The A375 BRAF V600E tumor cell line served as a positive control. Preparation of 96-well plates for CTG assays was performed according to the manufacturer’s instructions using the CTG Luminescent Cell Viability Assay Kit (Promega, RRID: SCR_006724, cat. no. G7573). Luminescence was measured on day 3 using the 2104 EnVision Multilabel Reader (PerkinElmer).
(§8) The inhibition rate of the tested compounds was determined using the following formula: inhibition rate (%) = (1 − [relative luminescence unit (RLU) compound − RLU blank])/(RLU control − RLU blank) × 100. EC50 proliferation values were generated using GraphPad Prism software analysis.

[3] = tested on: CRAF wt; design: method as in earlier work; conditions: full length human construct; GST-tagged CRAF wild type, 50 nmol/L biotinylated MEK, ATP 10 μmol/L; 41 (TAK-632: ref 26-28); cited from earlier work
[4] = tested on: BRAF wt; design: method as in earlier work; conditions: full length human construct; 0.125 nmol/L GST-tagged BRAF wild type, 12.5 nmol/L biotinylated MEK, ATP 50 μmol/L; 41 (TAK-632: ref 26-28); cited from earlier work
[5] = tested on: A375; experiment: CellTiter-Glo cell viability assay, A375; conditions: read-out: Proliferation EC50
Protocol: as §5, §6, §7, §8

[6] = tested on: pERK in sNF96.2 (NF1-LOF); experiment: pERK modulation in vitro, MSD ELISA, sNF96.2; conditions: read-out: pERK EC50
Protocol: as §1, §2, §3, §4

[7] = tested on: pERK in MeWo (NF1-LOF); experiment: pERK modulation in vitro, MSD ELISA, MeWo
Protocol: as §1, §2, §3, §4

[8] = tested on: MeWo; experiment: CellTiter-Glo cell viability assay, MeWo
Protocol: as §5, §6, §7, §8

[9] = tested on: pERK in A375 (BRAF V600E); experiment: pERK modulation in vitro, MSD ELISA, A375; format: cell-based; conditions: A375, BRAF V600E, melanoma, 1 hour after treatment, n = 2, read-out: pERK EC50
Protocol: as §1, §2, §3, §4

[10] = target: T1, ARAF (Homo sapiens, UniProt P10398); experiment: Time-resolved fluorescence energy transfer binding assay (KINETICfinder); conditions: partial length active recombinant human ARAF at 5 nmol/L; 60 minutes, room temperature; singlicate
T1 sequence (P10398 310-570 limits assumed): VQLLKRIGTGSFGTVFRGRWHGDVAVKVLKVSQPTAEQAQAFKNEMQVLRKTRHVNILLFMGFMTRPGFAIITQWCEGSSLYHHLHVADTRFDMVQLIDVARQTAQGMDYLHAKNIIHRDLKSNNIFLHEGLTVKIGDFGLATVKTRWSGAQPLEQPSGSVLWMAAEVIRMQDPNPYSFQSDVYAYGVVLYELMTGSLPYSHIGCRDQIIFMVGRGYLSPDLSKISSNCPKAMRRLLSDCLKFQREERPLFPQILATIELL
Protocol: Compounds were mixed with assay buffer (50 mmol/L HEPES pH 7.5, 1 mmol/L Ethyleneglycol-bis-(aminoethyl-ether)-N,N,N',N'-tetraacetic acid, 0.01% Brij-35, 10 mmol/L MgCl2, and 2 mmol/L Dithiothreitol), and 5 μL of this solution was transferred to the assay plate. The final concentration of DMSO in the assay was 1%. Hundred percent DMSO was used as a high and low control. Assays were run in singlicate with a reference compound included in each assay to evaluate reproducibility and assay quality.
Wells containing the fluorescent probe, antibody, and target (ARAF) were used as the high reaction control (total binding) and wells containing the probe and antibody were used as the low reaction control (nonspecific binding). […] Next, the substrate antibody solution was added, and the reaction was incubated for 60 minutes at room temperature. Percentage inhibition of each well was calculated using the following formula: % inhibition = 100 − [compound emission ratio (ER) − low control ER/high control ER − low control ER] × 100. Results were fitted to a concentration response curve with a variable slope and constraints of 0 and 100 for bottom and top, respectively, to generate the IC50 values.

[11] = tested on: sNF96.2; experiment: CellTiter-Glo cell viability assay, sNF96.2; conditions: read-out: Proliferation EC50
Protocol: as §5, §6, §7, §8

[12] = tested on: NF1-LOF tumor cell lines; experiment: CellTiter-Glo cell viability assay, statement on all three NF1-LOF tumor cell lines; conditions: CTG 72 hours
Protocol: as §5, §6
Anti-proliferative activity was assessed after 72 hours of treatment with the test compound or control. […] DMSO was also applied as a control on days 2 and 3. The final DMSO concentration for all test compounds and vehicle control was 0.1%. […] Luminescence was measured on day 3 using the 2104 EnVision Multilabel Reader (PerkinElmer).
The inhibition rate of the tested compounds was determined using the following formula: inhibition rate (%) = (1 − [relative luminescence unit (RLU) compound − RLU blank])/(RLU control − RLU blank) × 100. […]

## O=C1CCc2c(Oc3ccc4c(c3)[C@@H]3[C@H](O4)[C@H]3c3nc4ccc(C(F)(F)F)cc4[nH]3)ccnc2N1 [BGB-283]
[1]; 1 hour after treatment
  extent of the pERK increase: higher extent

## Cc1ccc(NC(=O)c2ccnc(C(F)(F)F)c2)cc1-c1cc(OCCO)nc(N2CCOCC2)c1 [LXH254]
[1]; 1 hour after treatment
  extent of the pERK increase: lesser extent

## Cc1ccc2c(Nc3cccc(Cl)c3F)nccc2c1NC(=O)c1csc2c(N)ncnc12 [Belvarafenib]
[1]; 1 hour after treatment
  extent of the pERK increase: lesser extent

## N#Cc1c(Oc2ccc(F)c(NC(=O)Cc3cccc(C(F)(F)F)c3)c2)ccc2nc(NC(=O)C3CC3)sc12 [TAK-632]
[2]; NCI-H1838, CTG 72 hours after treatment, n = 1, repeated application of tovorafenib
  EC50: 3.3 µM
[3]
  IC50: 0.0014 µM
[1]; 1 hour after treatment
  extent of the pERK increase: lesser extent
[1]; NCI-H1838, NF1-LOF, lung, 1 hour after treatment, n = 1
  EC50: 1.25 µM
[4]
  IC50: 0.0083 µM
[5]; A375, CTG 72 hours after treatment, repeated application of tovorafenib
  EC50: 0.07 µM
[6]; sNF96.2, NF1-LOF, MPNST, 1 hour after treatment, n = 2
  EC50: 0.75 µM
[7]; read-out: pERK EC50, NF1-LOF, melanoma, 1 hour after treatment, n = 2
  EC50: 1.6 µM
[8]; read-out: Proliferation EC50, CTG 72 hours after treatment, repeated application of tovorafenib
  EC50: 4.1 µM
[9]
  EC50: 0.03 µM
[10]
  IC50: 0.215 µM
[11]; sNF96.2, CTG 72 hours after treatment, repeated application of tovorafenib
  EC50: 2.4 µM

## CCCS(=O)(=O)Nc1ccc(F)c(C(=O)c2c[nH]c3ncc(-c4ccc(Cl)cc4)cc23)c1F [Vemurafenib]
[2]; Homo sapiens, NCI-H1838, 72 h
  EC50: > 10 µM
[1]; Homo sapiens, NCI-H1838, 1 h
  EC50: > 10 µM
[12]
  sensitivity of cell lines: insensitive
[5]; Homo sapiens, A-375, 72 h
  EC50: 0.09 µM
[6]; SNF96.2, 1 h
  EC50: > 10 µM
[7]; Homo sapiens, 1 h, read-out: pERK EC50
  EC50: > 10 µM
[8]; Homo sapiens, 72 h, read-out: Proliferation EC50
  EC50: 4.5 µM
[9]; Homo sapiens, A-375
  EC50: 0.02 µM
[11]; SNF96.2, 72 h
  EC50: 6 µM
